How the values were obtained:
[1] = system: Bc 1–5 (RNA, riboswitch) GAUGUAACUGAAUGAAAUGGUGAAGGACGGGUCCACUUAUAACGAGAAGCGGAGGGACUGGCCCAAUGAAGCUUCAGCAACCAUUCAUUGCGAUGAAAAGGUGCUAAAUCCAGCAAAGGGAACUUUGGCAGAUAAGUUGUUGAGUAGAGUGUGAGCUCCGUAACUAGUUACAUC; assay: fluorescence titration; details: 125 mM KCl, 10 mM MgCl2; 40 mM HEPES pH 7.5, 37 °C, 100 nM RNA, 10 µM DFHBI
[2] = system: Bs 4-4 (RNA, riboswitch) GAUGUAACUGAAUGAAAUGGUGAAGGACGGGUCCACUUGGAAGAUAAGAAGCAAUUCUUAUCAAGAGAAGCAGAGGGACUGGCCCGACGAAGCUUCAGCAACCGGUGUAAUGGCGAUCAGCCAUGACCAAGGUGCUAAAUCCAGCAAGUUGUUGAGUAGAGUGUGAGCUCCGUAACUAGUUACAUC; assay: fluorescence titration; details: 125 mM KCl, 10 mM MgCl2; 40 mM HEPES pH 7.5, 37 °C, 100 nM RNA, 10 µM DFHBI

KD [1]: ~ 1.7 µM
dissociation constant [2]: 1.0 µM
Compound: C[S+](CC[C@H](N)C(=O)O)C[C@H]1O[C@@H](n2cnc3c(N)ncnc32)[C@H](O)[C@@H]1O (some centres unmarked)

— article PMC6051913 (2018)
